In patent publication US4052409A, “Disubstituted triphenylmethylimidazoles” (Bayer Aktiengesellschaft, priority 1972, dated 1977):
In brackets after ≈: the same amount, converted by molar mass. Read-outs that look alike come from different tables or passages of the source.

Assays:
Aspergillus niger = experiment: Antimycotic activity in vitro, series dilution test; assay type: cell-based; details: 28° C, 24 to 96 hours, read-out: Minimum Inhibitory Concentration
Description: (§1) Determination of the antimycotic spectrum of activity in vitro by the series dilution test.
(§2) The nutrient media used were Sabouraud's milieu d'epreuve for dermatophytes and molds and meat broth-glucose bouillon for blastomycetes and biphase fungi.
(§3) The incubation temperature was 28° C and the incubation time was 24 to 96 hours.

Microsporon canis = experiment: as above; assay type: cell-based; details: 28° C, 24 to 96 hours; serum not stated; read-out: Minimum Inhibitory Concentration
Description: as §1, §2, §3

Penicillium commune = experiment: as above; assay type: cell-based; details: 28° C, 24 to 96 hours, serum not stated, read-out: Minimum Inhibitory Concentration
Description: as §1, §2, §3

Candida albicans = experiment: as above; assay type: cell-based; details: 28° C, 24 to 96 hours, read-out: Minimum Inhibitory Concentration
Description: as §1, §2, §3

[1] = tested on: Trichophyton mentagrophytes; experiment: as above; assay type: cell-based; details: 28° C, 24 to 96 hours, read-out: Minimum Inhibitory Concentration
Description: as §1, §2, §3

[2] = tested on: Trichophyton mentagrophytes; experiment: Topical application in experimental trichophytosis of guinea pigs; assay type: in vivo; parameters: key: ++: slight action = reduction of symptons of the infection; +++: action = rapid healing of the infection; ++++: good action = complete suppression of symptoms of the infection; details: 1% strength solution, topically for 11 to 14 days
Description: a. Topical application in experimental trichophytosis of guinea pigs (excitant: Trichophyton mentagrophytes)
A 1% strength solution of the active compound in a dimethylsulphoxide/glycerine/water mixture (1:3:6) or in polyethylene glycol 400 was applied topically for 11 to 14 days after the trichophytosis had been caused experimentally.

Row | MIC (Aspergillus niger; n.s. = no added serum) | MIC (Aspergillus niger; w.s. = with 30% serum added) | MIC (Microsporon canis) | MIC (Penicillium commune) | MIC (Candida albicans; w.s. = with 30% serum added) | MIC (Candida albicans; n.s. = no added serum) | MIC ([1]; n.s. = no added serum) | MIC ([1]; w.s. = with 30% serum added) | Compound | Action in trichophytosis of guinea pigs [2]
1 | 1 µg/mL (≈ 2.79 µM) | 10 µg/mL (≈ 27.9 µM) | 4 µg/mL (≈ 11.1 µM) | 4 µg/mL (≈ 11.1 µM) |  |  |  |  | Cc1cc(Cl)ccc1C(c1ccccc1)(c1ccccc1)n1ccnc1 [Example 4 (from Table 1), 1-(2-Methyl-4-chlorophenyl-diphenyl)-methyl-imidazole] | 
2 | < 1 µg/mL | 4 µg/mL (≈ 10.5 µM) | < 1 µg/mL | 4 µg/mL (≈ 10.5 µM) |  |  |  |  | Clc1cccc(Cl)c1C(c1ccccc1)(c1ccccc1)n1ccnc1 [Example 7 (from Table 1), 1-(2,6-Dichlorophenyl-diphenyl)-methyl-imidazole] | 
3 |  |  | 4 µg/mL (≈ 11.8 µM) | < 1 µg/mL |  |  |  |  | Cc1cccc(C(c2ccccc2)(c2ccccc2)n2ccnc2)c1C [Example 1 (from Table 1), 1-(2,3-dimethylphenyl-diphenyl)-methyl-imidazole] | 
4 | 1 µg/mL (≈ 2.95 µM) | 40 µg/mL (≈ 118 µM) | 4 µg/mL (≈ 11.8 µM) | 4 µg/mL (≈ 11.8 µM) |  |  |  |  | Cc1ccc(C)c(C(c2ccccc2)(c2ccccc2)n2ccnc2)c1 [Example 3 (from Table 1), 1-(2,5-Dimethylphenyl-diphenyl)-methyl-imidazole] | 
5 | < 1 µg/mL | 10 µg/mL (≈ 29.5 µM) | 4 µg/mL (≈ 11.8 µM) | 10 µg/mL (≈ 29.5 µM) | 10 µg/mL (≈ 29.5 µM) |  |  |  | Cc1ccccc1C(c1ccccc1)(c1ccccc1C)n1ccnc1 [Example 8 (from Table 1), 1-(2-Methylphenyl-2'-methylphenyl-phenyl)-methyl-imidazole] | 
6 | < 1 µg/mL | 10 µg/mL (≈ 26.4 µM) | < 1 µg/mL | 4 µg/mL (≈ 10.5 µM) |  | 1 µg/mL (≈ 2.64 µM) | < 1 µg/mL | 4 µg/mL (≈ 10.5 µM) | Clc1cccc(C(c2ccccc2)(c2ccccc2)n2ccnc2)c1Cl [Example 6] | ++
7 | 1 µg/mL (≈ 2.95 µM) | 4 µg/mL (≈ 11.8 µM) | 4 µg/mL (≈ 11.8 µM) | 100 µg/mL (≈ 295 µM) |  | 1 µg/mL (≈ 2.95 µM) | < 1 µg/mL | 10 µg/mL (≈ 29.5 µM) | Cc1ccc(C(c2ccccc2)(c2ccccc2)n2ccnc2)c(C)c1 [Example 2] | ++++
8 | < 1 µg/mL |  | < 1 µg/mL | 1 µg/mL (≈ 2.64 µM) |  |  |  |  | Clc1ccccc1C(c1ccccc1)(c1ccccc1Cl)n1ccnc1 [Example 9 (from Table 1), 1-(2-Chlorophenyl-2'-chlorophenyl-phenyl) -methyl-imidazole] | 
